Data: patent publication US6391921B1 (priority 2000, dated 2002)

Tests used:
[1] = tested on: RBL-2H3 mast cells; assay: IgE receptor/FcεRI-mediated mast cell degranulation (β-hexosaminidase release); assay type: cell-based, rat
Method: (§1) Monolayers of RBL-2H3 rat mast cells were sensitized with monoclonal anti-DNP IgE antibody (0.24 mg/ml) for 1 hour at 37° C. in a 48-well tissue culture plate. Unbound IgE was removed by washing the cells with phosphate buffered saline. After washing, PIPES-buffered saline containing 1 mM calcium chloride was added to the monolayers of the RBL-2H3 cells. The cells were challenged with 20 ng/ml DNP-BSA for 30 minutes at 37° C. The plate was centrifuged at 200 g for 10 minutes at 4° C. and supernatants were saved. […]
(§2) To study the effects of compound D-58, RBL-2H3 cells were incubated with compound D-58 at the indicated concentrations or vehicle for 1 hour prior to antigen challenge. Mast cell degranulation (β-hexosaminidase release, % of total) was assessed by measuring the β-hexosaminidase levels in cell free supernatants and Triton X-100 solubilized pellets using the formula: β-hexosaminidase release, % of total=100×(β-hexosaminidase level in supernatant/β-hexosaminidase level in supernatant+solubilized pellet). […]
(§3) In order to examine the effects of compound D-58 on IgE receptor/FcεRI-mediated mast cell activation and mediator release, RBL-2H3 mast cells were exposed to increasing concentrations of this ethanone or vehicle prior to challenge with antigen (DNP-BSA). […] Mast cell β-hexosaminidase release (FIG. 3A) and LTC4 release (FIG. 3B) were measured. […]

[2] = tested on: RBL-2H3 mast cells; assay: IgE receptor/FcεRI-mediated mast cell LTC4 release; assay type: cell-based, rat; details: 1 hour prior to DNP-BSA challenge; FIG. 3B
Method: as §1, §2, §3

[3] = tested on: Balb/c mice; assay: Carrageenan air pouch model of acute inflammation, PGE2 release in vivo; details: 50 mg/kg i.p. twice before carrageenan challenge; 4 hours after challenge; FIG. 6
Method: The effects of compound D-58 on PGE2 release in vivo were examined using a well characterized air pouch mouse model of acute inflammation (ref 36). An acute inflammatory response was induced in the air pouches of mice by the injection of carrageenan, a sulfated polysaccharide obtained from the alga Chondrus crispus (ref 36).
Balb/c (6-8 weeks old male) mice were utilized for these experiments. To create an air pouch, mice were injected with 3 ml sterile air subcutaneously using a 30 gauge needle on days 0 and 3 as described previously (refs 30 and 31). Six days after the initial injection of air, mice were injected with 2 ml of 1% carrageenan into the subcutaneous air pouch.
In order to study the effect of compound D-58, a group of mice was injected with the drug i.p. 60 minutes and 30 minutes before the carrageenan challenge. Control mice were treated with vehicle alone. After 4 hours of challenge with carrageenan, mice were sacrificed and the contents of the air pouches were harvested by lavage with 2 ml cold saline. The recovered fluids were centrifuged at 250×g for 15 minutes at 4° C. Supernatants were saved at −80° C. for the estimation the of prostaglandin E2 contents. […]
The data points represent the mean±SEM values (n=4-5 mice). *p<0.05 compared to vehicle-treated controls was determined by Student's t test.

[4] = tested on: skh-1 mice; assay: UVB-irradiated skin edema (skinfold thickness); assay type: in vivo; details: 180 mJ/cm^2 UVB
Method: Mice (skh-1) were treated daily with 20 mg/kg i.p. bolus injections of compound D-58 from day −2 (i. e. 2 days prior to UVB exposure) until the termination of the experiment. Anesthetized mice received UVB radiations to a 2.0 cm^2 area on their dorsal surface. This area was painted either with the test compound (1.5 mg/cm^2) in drug receiving mice, or with vehicle in control mice 15 minutes before irradiation. The distance between UVB lamps and surface receiving irradiation was 20 cm. The final radiation dose received by skh-1 hairless mice was 180 mJ/cm^2 which is approximately four times higher than the minimal erythema dose (MED) (ref 29) in these mice. Skinfold thickness of the back of the mice was recorded prior to, and on each day after UVB exposure for five days with a digital thickness gauge (Mitutoyo Co., Plainfield, N.J.) which measures the skinfold thickness in a 0-10 mm range with an accuracy of 0.015 mm. […] For this purpose female, hairless, albino skh-1 mice were exposed to 180 mJ/cm^2 UVB light and their skinfold thickness, as a parameter of acute inflammation, was measured on days 1 through 5 following irradiation. […] The data points represent the mean±SEM values (n=5 mice). *p<0.05 and **p<0.001 compared to vehicle-treated UVB irradiated controls were determined by Student's t test.

[5] = tested on: skh-1 mice; assay: Histological studies of UVB-irradiated skin; assay type: in vivo
From the text: After mice from Example 7 were sacrificed electively, a skin specimen was removed and spread on a sheet of dental wax. An 8 mm^2 biopsy punch was taken and fixed in buffered formalin. 4-5 μm thick sections were cut from paraffin blocks. In order to study the histopathological changes in skin following UVB exposure, the tissue sections were stained with hematoxylin and eosin and the stained slides were examined microscopically.
The effects of compound D-58 on UVB-induced histological changes in skin were examined and the results are illustrated in the 40× magnifications of FIGS. 8A-8C. The normal epidermis typically has a 2-3 cell layer and contains scattered inflammatory cells especially around hair follicles (FIG. 8A). […] Large numbers of neutrophils also were accumulated in the dermis (FIG. 8B). In contrast, the skin of mice treated with compound D-58 looked very much like the skin of unirradiated controls (FIG. 8C), with 1-2 cell layers of epidermis and normal dermis.

**Q.** Which results are given for COc1ccc(CC(=O)c2c(O)cc(O)cc2O)cc1 [Compound D-58]?
**A.** IgE/antigen induced mast cell degranulation (β-hexosaminidase) ([1]; 1 hour prior to DNP-BSA challenge, FIG. 3A): inhibited; mediator release induced by compound alone ([1]; incubation without antigen challenge (data not shown)): did not induce mediator release; IgE/antigen induced LTC4 release [2]: inhibited; decrease of PGE2 release into the air pouch [3]: approximately 50%; development of skin edema after UVB exposure ([4]; 20 mg/kg i.p. daily from day −2 plus 1.5 mg/cm^2 topical, FIG. 7): effectively inhibited; skinfold thickness ([4]; by 72 hours post irradiation): at baseline control levels; cell layers of epidermis ([5]; UVB-irradiated skin of treated mice, FIG. 8C, UVB-irradiated untreated 3-5, normal 2-3): 1-2; edema and neutrophil influx in UVB irradiated skin ([5]; histology, hematoxylin and eosin): prevented the development of edema and neutrophil influx
